Results taken from patent US11267811B2, “Small molecule inhibitors of galectin-3” (BRISTOL-MYERS SQUIBB COMPANY, priority 2017, dated 2022).

What follows are molecules tested against His-tagged recombinant human Gal-3 (hGal-3) (Homo sapiens (Human), UniProt P17931) (assay: Gal-3 HTRF assay (His-tagged hGal-3 binding to B-ASF)). Settings: HTRF, hGal-3 15 nM, B-ASF 15 nM; read-out: hGal-3 IC50.
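Note: compounds preincubated 30 min with hGal-3, then 1 h with B-ASF, detection via terbium anti-His antibody and streptavidin d2. Control with B-ASF counts as full signal, omitting B-ASF as background.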

Sequence of His-tagged recombinant human Gal-3 (hGal-3) (P17931 whole entry): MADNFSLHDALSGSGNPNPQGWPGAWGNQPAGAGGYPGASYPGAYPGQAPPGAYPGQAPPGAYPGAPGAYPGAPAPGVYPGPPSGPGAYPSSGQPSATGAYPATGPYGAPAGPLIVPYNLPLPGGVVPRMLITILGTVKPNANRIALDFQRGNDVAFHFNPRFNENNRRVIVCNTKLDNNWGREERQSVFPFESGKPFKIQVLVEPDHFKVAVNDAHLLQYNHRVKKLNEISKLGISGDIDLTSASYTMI

Compound	IC50 [nM]
Cc1nc2ccc(-n3nc(C(C)(C)O)nc3[C@H]3C[C@@H](n4cc(-c5cc(F)c(F)c(F)c5)nn4)[C@@H](O)[C@@H](CO)O3)cc2s1 [Example 270, (2R,3R,4R,6R)-2-(hydroxymethyl)-6-(3-(2-hydroxypropan-2-yl)-1-(2-methylbenzo[d]thiazol-6-yl)-1H-1,2,4-triazol-5-yl)-4-(4-(3,4,5-trifluorophenyl)-1H-1,2,3-triazol-1-yl)tetrahydro-2H-pyran-3-ol]	170
CNC(=O)c1nc([C@H]2C[C@@H](n3cc(-c4cccc(F)c4)nn3)[C@@H](O)[C@@H](CO)O2)n(-c2ccc3nc(C)sc3c2)n1 [Example 271, 5-((2R,4R,5R,6R)-4-(4-(3-fluorophenyl)-1H-1,2,3-triazol-1-yl)-5-hydroxy-6-(hydroxymethyl)tetrahydro-2H-pyran-2-yl)-N-methyl-1-(2-methylbenzo[d]thiazol-6-yl)-1H-1,2,4-triazole-3-carboxamide]	390
Cc1nnc([C@@H]2O[C@H](CO)[C@H](O)[C@H](n3cc(-c4cc(F)c(F)c(F)c4)nn3)[C@H]2O)n1-c1cccc(Cl)c1 [Example 272, (2S,3R,4R,5R,6R)-2-(4-(3-chlorophenyl)-5-methyl-4H-1,2,4-triazol-3-yl)-6-(hydroxymethyl)-4-(4-(3,4,5-trifluorophenyl)-1H-1,2,3-triazol-1-yl)tetrahydro-2H-pyran-3,5-diol]	70
Cc1nc2ccc(-n3c(C)nnc3[C@@H]3O[C@H](CO)[C@H](O)[C@H](n4cc(-c5cc(F)c(F)c(F)c5)nn4)[C@H]3O)cc2s1 [Example 273, (2R,3R,4R,5R,6S)-2-(hydroxymethyl)-6-(5-methyl-4-(2-methylbenzo[d]thiazol-6-yl)-4H-1,2,4-triazol-3-yl)-4-(4-(3,4,5-trifluorophenyl)-1H-1,2,3-triazol-1-yl)tetrahydro-2H-pyran-3,5-diol]	40
Cc1nc2ccc(-n3c([C@@H]4O[C@H](CO)[C@H](O)[C@H](n5cc(-c6cc(F)c(F)c(F)c6)nn5)[C@H]4O)nnc3C(C)(C)O)cc2s1 [Example 276, (2R,3R,4R,5R,6S)-2-(hydroxymethyl)-6-(5-(2-hydroxypropan-2-yl)-4-(2-methylbenzo[d]thiazol-6-yl)-4H-1,2,4-triazol-3-yl)-4-(4-(3,4,5-trifluorophenyl)-1H-1,2,3-triazol-1-yl)tetrahydro-2H-pyran-3,5-diol]	50
Cc1nc2ccc(-n3c(C(N)=O)nnc3[C@@H]3O[C@H](CO)[C@H](O)[C@H](n4cc(-c5cc(F)c(F)c(F)c5)nn4)[C@H]3O)cc2s1 [Example 277, 5-((2S,3R,4R,5R,6R)-3,5-dihydroxy-6-(hydroxymethyl)-4-(4-(3,4,5-trifluorophenyl)-1H-1,2,3-triazol-1-yl)tetrahydro-2H-pyran-2-yl)-4-(2-methylbenzo[d]thiazol-6-yl)-4H-1,2,4-triazole-3-carboxamide]	40
CSc1nnc([C@@H]2O[C@H](CO)[C@H](O)[C@H](n3cc(-c4cc(F)c(F)c(F)c4)nn3)[C@H]2O)n1-c1ccc(Cl)c(Cl)c1 [Example 278, (2S,3R,4R,5R,6R)-2-(4-(3,4-dichlorophenyl)-5-(methylthio)-4H-1,2,4-triazol-3-yl)-6-(hydroxymethyl)-4-(4-(3,4,5-trifluorophenyl)-1H-1,2,3-triazol-1-yl)tetrahydro-2H-pyran-3,5-diol]	120
CS(=O)(=O)c1nnc([C@@H]2O[C@H](CO)[C@H](O)[C@H](n3cc(-c4cc(F)c(F)c(F)c4)nn3)[C@H]2O)n1-c1ccc(Cl)c(Cl)c1 [Example 279, (2S,3R,4R,5R,6R)-2-(4-(3,4-dichlorophenyl)-5-(methylsulfonyl)-4H-1,2,4-triazol-3-yl)-6-(hydroxymethyl)-4-(4-(3,4,5-trifluorophenyl)-1H-1,2,3-triazol-1-yl)tetrahydro-2H-pyran-3,5-diol]	70

Now from value to molecule:

IC50 [nM]	Compound
70	Cc1nc2ccc(-n3c(C)nnc3[C@H]3C[C@@H](n4cc(-c5cc(F)c(F)c(F)c5)nn4)[C@@H](O)[C@@H](CO)O3)cc2s1 [Example 280, (2R,3R,4R,6R)-2-(hydroxymethyl)-6-(5-methyl-4-(2-methylbenzo[d]thiazol-6-yl)-4H-1,2,4-triazol-3-yl)-4-(4-(3,4,5-trifluorophenyl)-1H-1,2,3-triazol-1-yl)tetrahydro-2H-pyran-3-ol]
80	Cc1nc2ccc(-n3c([C@H]4C[C@@H](n5cc(-c6cc(F)c(F)c(F)c6)nn5)[C@@H](O)[C@@H](CO)O4)nnc3C(F)(F)F)cc2s1 [Example 281, (2R,3R,4R,6R)-2-(hydroxymethyl)-6-(4-(2-methylbenzo[d]thiazol-6-yl)-5-(trifluoromethyl)-4H-1,2,4-triazol-3-yl)-4-(4-(3,4,5-trifluorophenyl)-1H-1,2,3-triazol-1-yl)tetrahydro-2H-pyran-3-ol]
30	CO[C@@H]1[C@@H](n2cc(-c3cc(F)c(F)c(F)c3)nn2)[C@@H](O)[C@@H](CO)O[C@H]1c1nncn1-c1ccc2nc(C)sc2c1 [Example 282, (2R,3R,4S,5R,6S)-2-(hydroxymethyl)-5-methoxy-6-(4-(2-methylbenzo[d]thiazol-6-yl)-4H-1,2,4-triazol-3-yl)-4-(4-(3,4,5-trifluorophenyl)-1H-1,2,3-triazol-1-yl)tetrahydro-2H-pyran-3-ol]
2400	Cc1nc([C@@H]2O[C@H](CO)[C@H](O)[C@H](n3cc(-c4cc(F)c(F)c(F)c4)nn3)[C@H]2O)c(-c2cccc(Cl)c2)s1 [Example 284, (2S,3R,4R,5R,6R)-2-(5-(3-chlorophenyl)-2-methylthiazol-4-yl)-6-(hydroxymethyl)-4-(4-(3,4,5-trifluorophenyl)-1H-1,2,3-triazol-1-yl)tetrahydro-2H-pyran-3,5-diol]
445	OC[C@H]1O[C@@H](c2ccnn2-c2ccc(Cl)c(Cl)c2)[C@H](O)[C@@H](n2cc(-c3cc(F)c(F)c(F)c3)nn2)[C@H]1O [Example 285, (2S,3R,4R,5R,6R)-2-(1-(3,4-dichlorophenyl)-1H-pyrazol-5-yl)-6-(hydroxymethyl)-4-(4-(3,4,5-trifluorophenyl)-1H-1,2,3-triazol-1-yl)tetrahydro-2H-pyran-3,5-diol]
10000	Cn1ncc(-c2cccc(Cl)c2)c1[C@@H]1O[C@H](CO)[C@H](O)[C@H](n2cc(-c3cc(F)c(F)c(F)c3)nn2)[C@H]1O [Example 287, (2S,3R,4R,5R,6R)-2-(4-(3-chlorophenyl)-1-methyl-1H-pyrazol-5-yl)-6-(hydroxymethyl)-4-(4-(3,4,5-trifluorophenyl)-1H-1,2,3-triazol-1-yl)tetrahydro-2H-pyran-3,5-diol]
4000	OC[C@H]1O[C@@H](c2oncc2-c2ccc(Cl)c(Cl)c2)[C@H](O)[C@@H](n2cc(-c3cc(F)c(F)c(F)c3)nn2)[C@H]1O [Example 288, (2R,3R,4S,5R,6R)-2-(4-(3,4-dichlorophenyl)isoxazol-5-yl)-6-(hydroxymethyl)-4-(4-(3,4,5-trifluorophenyl)-1H-1,2,3-triazol-1-yl)tetrahydro-2H-pyran-3,5-diol]
3000	OC[C@H]1O[C@@H](c2nn[nH]c2-c2cccc(Cl)c2)[C@H](O)[C@@H](n2cc(-c3cc(F)c(F)c(F)c3)nn2)[C@H]1O [Example 290, (2S,3R,4R,5R,6R)-2-(5-(3-chlorophenyl)-1H-1,2,3-triazol-4-yl)-6-(hydroxymethyl)-4-(4-(3,4,5-trifluorophenyl)-1H-1,2,3-triazol-1-yl)tetrahydro-2H-pyran-3,5-diol]
10000	OC[C@H]1O[C@@H](n2ccc3cc(Cl)ccc32)[C@H](O)[C@@H](n2cc(-c3cc(F)c(F)c(F)c3)nn2)[C@H]1O [Example 291, (2R,3R,4S,5R,6R)-2-(5-chloro-1H-indol-1-yl)-6-(hydroxymethyl)-4-(4-(3,4,5-trifluorophenyl)-1H-1,2,3-triazol-1-yl)tetrahydro-2H-pyran-3,5-diol]
10000	COc1ccc([C@@H]2O[C@H](CO)[C@H](O)[C@H](n3cc(-c4cc(F)c(F)c(F)c4)nn3)[C@H]2O)cc1 [Example 292, (2R,3R,4R,5R,6S)-2-(hydroxymethyl)-6-(4-methoxyphenyl)-4-(4-(3,4,5-trifluorophenyl)-1H-1,2,3-triazol-1-yl)tetrahydro-2H-pyran-3,5-diol]
14400	CNC(=O)c1nnc([C@@H]2O[C@H](CO)[C@H](O)[C@H](n3cc(-c4cccc(F)c4)nn3)[C@H]2O)o1 [Example 295, 5-((2R,3R,4S,5R,6R)-4-(4-(3-fluorophenyl)-1H-1,2,3-triazol-1-yl)-3,5-dihydroxy-6-(hydroxymethyl)tetrahydro-2H-pyran-2-yl)-N-methyl-1,3,4-oxadiazole-2-carboxamide]
1490	O=C(NCc1ccncc1)c1nnc([C@@H]2O[C@H](CO)[C@H](O)[C@H](n3cc(-c4cccc(F)c4)nn3)[C@H]2O)o1 [Example 296, 5-((2R,3R,4S,5R,6R)-4-(4-(3-fluorophenyl)-1H-1,2,3-triazol-1-yl)-3,5-dihydroxy-6-(hydroxymethyl)tetrahydro-2H-pyran-2-yl)-N-(pyridin-4-ylmethyl)-1,3,4-oxadiazole-2-carboxamide]
9770	CCN(CC)CCNC(=O)c1nnc([C@@H]2O[C@H](CO)[C@H](O)[C@H](n3cc(-c4cccc(F)c4)nn3)[C@H]2O)o1 [Example 297, N-(2-(diethylamino)ethyl)-5-((2R,3R,4S,5R,6R)-4-(4-(3-fluorophenyl)-1H-1,2,3-triazol-1-yl)-3,5-dihydroxy-6-(hydroxymethyl)tetrahydro-2H-pyran-2-yl)-1,3,4-oxadiazole-2-carboxamide]
43600	O=C(NCc1cccnc1)c1nnc([C@@H]2O[C@H](CO)[C@H](O)[C@H](n3cc(-c4cccc(F)c4)nn3)[C@H]2O)o1 [Example 298, 5-((2R,3R,4S,5R,6R)-4-(4-(3-fluorophenyl)-1H-1,2,3-triazol-1-yl)-3,5-dihydroxy-6-(hydroxymethyl)tetrahydro-2H-pyran-2-yl)-N-(pyridin-3-ylmethyl)-1,3,4-oxadiazole-2-carboxamide]

Same assay, conditions: read-out: hGal3 IC50

IC50 [nM]	Compound
50	Cc1nc2ccc(-n3c([C@@H]4O[C@H](CO)[C@H](O)[C@H](n5cc(-c6cc(F)c(F)c(F)c6)nn5)[C@H]4O)nnc3C(F)(F)F)cc2s1 [Example 274]
60	CCOC(=O)c1nnc([C@@H]2O[C@H](CO)[C@H](O)[C@H](n3cc(-c4cc(F)c(F)c(F)c4)nn3)[C@H]2O)n1-c1ccc2nc(C)sc2c1 [Example 275]
